Measured values as given in US6110491A, “Compound-loaded liposomes and methods for their preparation” (Hermes Biosciences, Inc., priority 1997, dated 2000).
In brackets after ≈: the same amount, converted by molar mass.

Experiments:
[1] = Doxorubicin loading into liposomes containing ammonium polyacrylate or sulfate in absence of ammonium ion gradient (Example 7); assay type: physicochemical; conditions: for Doxorubicin absorbed by liposomes: no ammonium ion gradient; for Doxorubicin incorporation into liposomes: outer Cl-
Description: Liposomes with entrapped ammonium sulfate or ammonium polyacrylate were prepared from the lipid mixture of hydrogenated soybean phosphatidylcholine (Avanti PolarLipids, Ala., U.S.A.), cholesterol (Calbiochem, USA), and poly(ethylene glycol) (Mol. weight 2,000) derivative of distearoyl phosphatidyl ethanolamine (PEG-DSPE) (Sygena, Switzerland), at the molar ratio 60:40:6, by lipid film hydration, repetitive freezing-thawing at 60° C. (6 times) and extrusion through two stacked polycarbonate track-etched membranes with the pore size 100 nm at 60° C. (12 times). The bulk aqueous phase of the liposomes was exchanged by gel-filtration for the outer buffer, 0.2 M ammonium chloride, adjusted (when necessary) to pH 7.3 and buffered with 10 mM sodium hydroxyethylpiperazino-ethane sulfonate (HEPES). The inner (entrapped) solution had ammonium ion concentration of 200 milli-eqivalent/L, i.e. the same as the outer buffer (no ammonium ion gradient), and the anion composition and pH as indicated below. Polyacrylic acid with mol. weight of 2,000 (Aldrich Chemical Co.) was used. Doxorubicin was added to the liposomes at 2 mg for each 6-8 micro-mol of phospholipid, and incubated with shaking at 60° C., i.e. above the transition temperature of the lipid bilayer, for various times as specified below. […] Doxorubicin-loaded liposomes were separated from the free drug by gel-chromatography on Sephadex G-75, eluted with the outer buffer. Liposomal doxorubicin was assayed by spectrophotometry at 485 nm, phospholipid was quantitated by molybdate method after acid digestion of the liposomes.

[2] = test system: Human nasopharyngeal epidermoid carcinoma (KB) cells; test: Cytotoxicity, growth inhibition by tetrazolium assay (96 hour incubation); assay type: cell-based; conditions: read-out: 50% growth inhibitory concentration (IC50)
Description: Human nasopharyngeal epidermoid carcinoma (KB) cells were from American Type Culture Collection (ATCC, Rockville, M.D.). The cells were grown in RPMI 1640 medium supplemented with 10% heat inactivated fetal calf serum, harvested by trypsinization, and plated in 96-well tissue culture plates at 2×10^4 cells/well. After a 24 hour acclimation period, a solution of free doxorubicin or the doxorubicin liposomes described in Example 1 were added to the cells to achieve final doxorubicin concentrations of 0.125-8 μg/ml. "Empty" liposomes were added to control cells at matching concentrations of the lipid. After a 96 hour incubation period, viability of the cells was measured by tetrazolium assay (Carmichael, et al., 1987). 50% growth inhibitory concentrations (IC50) of the studied preparation were as follows: […]

[3] = Doxorubicin loading into liposomes with entrapped polyacrylate / chondroitin sulfate A (Examples 1, 3); assay type: physicochemical
Description: 21.6 mg of polyacrylic acid (molecular weight 2,000; Aldrich Corporation, Milwaukee, Wis.) were dissolved in 3 ml of water and neutralized to pH 7.4 with NaOH to produce 100 milli-eq/L sodium polyacrylate solution. 10 mg of the mixture of egg PC, cholesterol, and PEG (molecular weight 2,000)-DSPE (Avanti Polar Lipids, Birmingham, Ala.) in the molar ratio of 10:5:1 was dissolved in chloroform, the solvent was evaporated in vacuum, the lipid film was incubated with shaking in 1 ml of the above polyacrylate solution, and the lipid dispersion was extruded under pressure through 2 stacked Nucleopore (Pleasanton, Calif.) membranes with pore size […]. […] To the so obtained liposomes, doxorubicin (Cetus Oncology, Norwalk, Conn.) was added at 200 nmol/μmol, of liposomal phospholipid. The mixture was incubated overnight at 37° C. with shaking, treated with Dowex 50W×4 (Sigma Chemical Co., St. Louis, Mo.), and equilibrated with NaCl-HEPES solution to remove non-encapsulated doxorubicin. The resulting liposomes were sterilized by filtration through a […] filter and assayed for doxorubicin by spectrophotometry and liposomal phospholipid by acid digestion-molybdene blue assay. […] Under similar conditions, doxorubicin loading into liposomes without entrapped sodium polyacrylate was 8 nmol/μmol of phospholipid.
Liposomes were prepared as in Example 1, except that inner buffer, instead of polyacrylic acid, contained 5 mg/ml of chondroitinsulfate A (Sigma Chemical Co., St. Louis, Mo.). After overnight incubation with doxorubicin ([…] of phospholipid) at pH 7.2, free drug was removed from the liposomes, and the liposomes were assayed as in Example 1. The doxorubicin content in the resulting liposomes was 26.0 nmol/μmol of phospholipid.

## COc1cccc2c1C(=O)c1c(O)c3c(c(O)c1C2=O)C[C@@](O)(C(=O)CO)C[C@@H]3O[C@H]1C[C@H](N)[C@H](O)[C@H](C)O1 [doxorubicin]
[1]; ammonium polyacrylate liposomes
  Doxorubicin absorbed by liposomes: considerable amounts
[1]; ammonium sulfate liposomes, 60° C.
  Doxorubicin absorbed by liposomes: very small amounts
[1]; in the presence of polyacrylate anion, 60° C.
  Doxorubicin precipitate formation: visibly precipitated
[1]; in the presence of sulfate anion, 60° C.
  Doxorubicin precipitate formation: did not form a detectable precipitate
[1]; inner SO4^2-, pH 7.3, 1 hour, 60° C.
  Doxorubicin incorporation into liposomes: 6.1 ± 0.8 mg of drug/mmol of liposome ph
[1]; inner SO4^2-, pH 7.3, 16 hours, 60° C.
  Doxorubicin incorporation into liposomes: 5.1 ± 0.2 mg of drug/mmol of liposome ph
[1]; inner polyacrylate, pH 5.2, 1 hour, 60° C.
  Doxorubicin incorporation into liposomes: 59.7 ± 2.5 mg of drug/mmol of liposome ph
[1]; inner polyacrylate, pH 7.3, 1 hour, 60° C.
  Doxorubicin incorporation into liposomes: 91.0 ± 2.8 mg of drug/mmol of liposome ph
[2]
  IC50: 0.35 mg/L (≈ 0.644 µM)
[3]; entrapped chondroitin sulfate A 5 mg/ml, overnight, pH 7.2
  Doxorubicin content in the resulting liposomes: 26.0 nmol/μmol of phospholipid
[3]; entrapped sodium polyacrylate, egg PC/cholesterol/PEG-DSPE, doxorubicin 200 nmol/μmol, overnight 37° C.
  Doxorubicin content of liposomes: 129 nmol/μmol of liposomal phospholipid
[3]; without entrapped sodium polyacrylate, similar conditions
  Doxorubicin loading into liposomes: 8 nmol/μmol of phospholipid
